Source: ChEMBL document CHEMBL1158501, “Synthesis and structure-activity relationships of novel furazan-3,4-diamide analogs as potent anti-cancer agents” (Bioorg Med Chem Lett, 2010)

What was measured:
U-87 MG [1] = test: Inhibition of human U87MG cells after 48 hrs; format: functional, cell-based, U-87MG ATCC
SW480 [2] = test: Inhibition of human SW480 cells after 48 hrs; format: functional, cell-based; settings: SW480, 48 h
U-87 MG [3] = test: Inhibition of human U87MG cells at >= IC50 after 48 hrs; format: functional, U-87MG ATCC
SW480 [4] = test: Inhibition of human SW480 cells at >= IC50 after 48 hrs; format: functional

IC50 (U-87 MG [1]) [µM] | IC50 (SW480 [2]) [µM] | Compound | inhibition (INH) (U-87 MG [3]) [%] | inhibition (INH) (SW480 [4]) [%]
1 | 2 | O=C(Nc1nonc1NC(=O)c1ccc(I)cc1)c1ccc(I)cc1 | 70 | 50
> 20 | > 20 | O=C(Nc1nonc1NC(=O)C1CCCCC1)C1CCCCC1 | – | –
122 | 137 | O=C(Nc1nonc1NC(=O)c1ccccc1)c1ccccc1 | – | –
14 | 8 | O=C(Nc1nonc1NC(=O)c1ccc(Cl)cc1)c1ccc(Cl)cc1 | 70 | 50
17.1 | 7.4 | O=C(CCl)Nc1nonc1NC(=O)CCl | – | –
> 100 | 89.3 | O=C(Nc1nonc1NC(=O)c1ccccc1C(F)(F)F)c1ccccc1C(F)(F)F | – | –
> 8 | > 8 | O=C(Nc1ccccc1NC(=O)c1ccc(C(F)(F)F)cc1)c1ccc(C(F)(F)F)cc1 | – | –
14 | 4 | O=C(Nc1nonc1NC(=O)c1ccc(Br)cc1)c1ccc(Br)cc1 | 77 | 50
18.2 | 18.5 | O=C(Nc1nonc1NCc1ccc(C(F)(F)F)cc1)c1ccc(C(F)(F)F)cc1 | – | –
> 200 | > 200 | O=C(Nc1n[nH]c(O)c1NC(=O)c1ccc(C(F)(F)F)cc1)c1ccc(C(F)(F)F)cc1 | – | –
17.7 | 10.8 | O=C(Nc1nonc1NC(=O)c1cc(C(F)(F)F)cc(C(F)(F)F)c1)c1cc(C(F)(F)F)cc(C(F)(F)F)c1 | – | –
20.6 | 22.9 | FC(F)(F)c1ccc(CNc2nonc2NCc2ccc(C(F)(F)F)cc2)cc1 | – | –
> 10 | > 10 | O=C(Nc1nonc1NC(=O)c1cccc(C(F)(F)F)c1)c1cccc(C(F)(F)F)c1 | – | –
> 40 | > 40 | Cc1ccc(C(=O)Nc2nonc2NC(=O)c2ccc(C)cc2)cc1 | – | –
14.6 | 11.2 | O=C(Nc1nonc1NC(=O)c1ccc(C(F)(F)F)cc1)c1ccc(C(F)(F)F)cc1 | – | –
> 200 | > 200 | Nc1nonc1NC(=O)c1ccc(C(F)(F)F)cc1 | – | –
> 200 | > 200 | O=C(CN1CCOCC1)Nc1nonc1NC(=O)CN1CCOCC1 | – | –
> 200 | > 200 | CC(C)=CC(=O)Nc1nonc1NC(=O)C=C(C)C | – | –
70.7 | 71 | COc1cccc(C(=O)Nc2nonc2NC(=O)c2cccc(OC)c2)c1 | – | –
6 | 10 | O=C(Nc1nonc1NC(=O)c1ccc(F)cc1)c1ccc(F)cc1 | – | 50
> 40 | > 40 | COc1ccc(C(=O)Nc2nonc2NC(=O)c2ccc(OC)cc2)cc1 | – | –
> 8 | > 8 | O=C(Nc1cscc1NC(=O)c1ccc(C(F)(F)F)cc1)c1ccc(C(F)(F)F)cc1 | – | –
24 | 39.7 | O=C(Nc1nonc1NC(=O)c1ccc(Cl)c(Cl)c1)c1ccc(Cl)c(Cl)c1 | – | –
> 200 | > 200 | O=C(Nc1nonc1NC(=O)C1CCCC1)C1CCCC1 | – | –
> 200 | > 200 | O=C(Nc1nonc1NC(=O)C(Cl)(Cl)Cl)C(Cl)(Cl)Cl | – | –
25.5 | 17.2 | O=C(Nc1nonc1NC(=O)c1c(F)c(F)c(F)c(F)c1F)c1c(F)c(F)c(F)c(F)c1F | – | –
> 200 | > 200 | O=C(Nc1nonc1NC(=O)c1ccco1)c1ccco1 | – | –
